Here are results for 1 compound from US20060105023A1, “Treatment of neurological disorders with nicotine” (priority 2001, published 2006).

The subject of one data set is adult. Particulars: absorbed in one dose; cited from earlier work.
The conditions of data set [1]: people with average metabolic capacity for the compound; cited from earlier work.
For data set [2] the following is noted: within six hours, at a half life of about 60 minutes. An excerpt: It should be kept in mind that nicotine is a toxic compound. Therefore, only the minimum amount required for relief from smoking addiction or migraine symptoms should be used. […] Fortunately, nicotine is metabolized fairly rapidly.

For the compound `CN1CCCC1c1cccnc1` (stereo not drawn) [nicotine], the lethal dose result in the data set with adult is given as “Sixty”. Besides, in data set [1], the half life result is on record as “about 60 minutes”. Further, in data set [2], the “amount remaining of one mg of nicotine absorbed in the body” value is reported as “about 0.031 mg”.
